BindingDB's records for doi:10.1124/mol.64.1.143 (Abbott Laboratories, 2003)
Values joined by “and” are separate entries in the source; they are usually repeats but may differ in a detail not shown here. Equal values may be shown once.

These compounds were tested against T1, Calcium-activated potassium channel subunit beta (Sus scrofa, UniProt C0KY85).
T1 sequence (C0KY85 whole entry): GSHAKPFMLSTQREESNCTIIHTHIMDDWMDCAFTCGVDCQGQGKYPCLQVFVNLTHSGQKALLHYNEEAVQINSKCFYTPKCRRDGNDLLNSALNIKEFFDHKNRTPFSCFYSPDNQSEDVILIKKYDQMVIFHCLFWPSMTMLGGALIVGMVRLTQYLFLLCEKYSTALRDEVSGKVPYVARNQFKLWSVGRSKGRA

| SMILES | Ki |
| --- | --- |
| CCOc1ccccc1N=C(C[N+](=O)[O-])NC(C)C(C)(C)C (stereo not drawn) [CAS_3038059] | 41.3 nM and 16 nM |
| CCC(C)(C)NC(=NC#N)Nc1cccnc1 [NSC_43345] | 20.6 nM and 10.5 nM |
| CC(N/C(=N\C#N)Nc1ccncc1)C(C)(C)C (stereo not drawn) [NSC_4826] | 251 nM and 104 nM |
| CC1(C)Oc2ccc(C#N)cc2C(N2CCCC2=O)C1O (stereo not drawn) [NSC_93504] | 542 nM and 157 nM |
| CC1=NS(=O)(=O)c2cc(Cl)ccc2N1 [NSC_3019] | > 10000 nM |
| N#Cc1cccc(C2C3=C(CCCC3=O)N=C3CCCC(=O)C32)c1 (stereo not drawn) [zm244085] | 2770 nM and 671 nM |

The remaining lines, values ahead:

| Ki | SMILES |
| --- | --- |
| 4.9 nM | O=C1COCC2=NC3=C([C@H](c4ccc(F)c(I)c4)C12)S(=O)(=O)CC3 (stereo partly drawn) [A-312110] |
| 630 nM and 451 nM | C[C@](O)(C(=O)Nc1ccc(C(=O)c2ccccc2)cc1)C(F)(F)F [ZD-6169] |
